{
  "source": "patent US20100104524A1",
  "about": "“COSMETIC COMPOSITION FOR SKIN WHITENING COMPRISING ARCTIIN, ARCTIGENIN OR THE MIXTURE THEREOF AS ACTIVE” (priority 2007, published 2010)",
  "format_in_all_cases": "cell-based, mice",
  "key": {"[1]": {"tested_on": "B-16 melanoma (ATCC CRL 6323) cell line", "assay": "Melanin synthesis inhibition by forsythia suspensa active substances (IC50)", "conditions": "for IC50: Mus musculus, B16, 120 h, read-out: Melanin synthesis inhibition IC50; for Melanin synthesis inhibition (in words): compared to other substances of Forsythia suspensa", "description": "(§1) α-MSH, for an experiment for melanin synthesis inhibition, was dissolved in 10% DMSO (Dimethyl sulfoxide), and was used as 1 mM solution. B-16 melanoma (ATCC CRL 6323) cell line (derived from mice) was inoculated into a DMEM medium including 4.5 g/L of glucose, 10% serum, and 1% antibiotics, and was subcultured in 75[…] T-flask under 5% CO2 and at 37° C. The subcultured melanoma cell line was cultured in 75[…] T-flask for 24 hours, and was treated with 0.05% Trypsin containing 0.02% EDTA. Then, cells were separated, were inoculated in 75[…] T-flask, and were further cultured for 6 hours. Herein, the number of cells was 1×10^7 cells/flask. Then, a melanocyte-stimulating hormone was diluted in a DMEM medium to a final concentration 100[…]. Next, each of arctiin, arctigenin, matairesinol, oleanolic acid, betulinic acid, rutin, and ursolic acid was diluted in the DMEM medium to a final concentration of 10-1000 □/□ to carry out treatment of melanoma cells, and then, the cells were further cultured at 37° C. for 5 days. Next, the medium was obtained to measure absorbance at 475 nm, and through comparison of melanin synthesis, IC50 (□/□), that is, the density for inhibiting melanin synthesis by 50%, was calculated."}, "[2]": {"tested_on": "tyrosinase", "assay": "Expression inhibition I of a melanin synthesis enzyme in melanocyte (tyrosinase band in gel)", "conditions": "for Intensity of tyrosinase band: 100 □/□, 3 days culture, lower intensity = higher inhibition of tyrosinase biosynthesis, controls 123 (Control Exp 1) and 211 (Control Exp 2); for Inhibiting effect on biosynthesis of tyrosinase (in words): compared to Control Example 2 containing only a melanocyte stimulating hormone", "description": "as §1\nAn experiment was carried out in the same manner as described in Experimental Example 1 except that each of arctiin, arctigenin, matairesinol, oleanolic acid, betulinic acid, rutin, and ursolic acid was added, and culture was further carried out for 3 days to obtain cells. Also, in order to compare the expression inhibition of a melanin synthesis enzyme, experiments on Control Example 1 containing no forsythia suspensa active substance and Control Example 2 containing a melanocyte stimulating hormone were carried out. Obtained cells were washed with sodium phosphate buffer two times, were treated with 0.1% triton X-100, and were reacted by a sonicator for 30 seconds. From the reaction solution, cell precipitate and supernatant were separated by using a high-speed centrifuge at 12,000 rpm for 30 minutes at 4° C. From the separated supernatant, protein was separated by using electrophoresis, and was reacted in a reaction solution containing 0.2% DOPA solution for about 8 hours. Then, the production of tyrosinase in gel was measured."}, "[3]": {"tested_on": "B-16 melanoma (ATCC CRL 6323) cell line", "assay": "Melanin synthesis inhibition (%) by arctiin, arctigenin and the mixture thereof", "conditions": "n = 3, 5 days", "description": "The subcultured melanoma cell line was cultured in 75[…] T-flask for 24 hours, and was treated with 0.05% Trypsin containing 0.02% EDTA. Then, cells were separated, were inoculated in 75[…] T-flask, and were further cultured for 6 hours. Herein, the number of cells was 1×10^7 cells/flask. Then, a melanocyte-stimulating hormone was diluted in a DMEM medium to a final concentration 100[…]. Next, each of arctiin, arctigenin, matairesinol, oleanolic acid, betulinic acid, rutin, and ursolic acid was diluted in the DMEM medium to a final concentration of 10-1000 □/□ to carry out treatment of melanoma cells, and then, the cells were further cultured at 37° C. for 5 days. […] An experiment of melanin synthesis inhibition was carried out in the same manner as described in EXPERIMENTAL EXAMPLE 1, except the following processes. […] Next, the medium was obtained to measure absorbance at 475 nm, and melanin synthesis was compared. A melanin synthesis inhibition (%) was calculated according to Mathematical Formula 1, with a control value of cell cultures including only a melanocyte stimulating hormone. […] [formula]"}, "[4]": {"tested_on": "tyrosinase", "assay": "Expression inhibition II of a melanin synthesis enzyme from melanocyte (tyrosinase band in gel)", "conditions": "100 □/□ substance with melanocyte stimulating hormone 100; 3 days culture; controls 123 and 211", "description": "The subcultured melanoma cell line was cultured in 75[…] T-flask for 24 hours, and was treated with 0.05% Trypsin containing 0.02% EDTA. Then, cells were separated, were inoculated in 75[…] T-flask, and were further cultured for 6 hours. Herein, the number of cells was 1×10^7 cells/flask. Then, a melanocyte-stimulating hormone was diluted in a DMEM medium to a final concentration 100[…]. Next, each of arctiin, arctigenin, matairesinol, oleanolic acid, betulinic acid, rutin, and ursolic acid was diluted in the DMEM medium to a final concentration of 10-1000 □/□ to carry out treatment of melanoma cells, and then, the cells were further cultured at 37° C. for 5 days. […] An expression inhibiting effect of a melanin synthesis enzyme from melanocyte, which can be achieved by arctiin, arctigenin, or the mixture thereof, was determined. An experiment was carried out in the same manner as described in Experimental Example 1 except that each of arctiin, arctigenin, a 1:3 mixture of arctiin and arctigenin, and a 3:1 mixture of arctiin and arctigenin prepared by Preparation Examples 1 and 2 was added and culture was further carried out for 3 days to obtain cells. […] And then, the production of tyrosinase was measured in electrophoresis gel."}, "[5]": {"tested_on": "NIH/3T3 (ATCC CRL 1658) cell line", "assay": "Cytotoxicity on fibroblast cell (MTT)", "conditions": "for Cell viability (%): 12 hours, MTT", "description": "On a fibroblast cell, toxicity of arctiin, arctigenin, a 1:3 mixture of arctiin and arctigenin, and a 3:1 mixture of arctiin and arctigenin prepared by Preparation Examples 1 and 2 was measured, respectively. NIH/3T3 (ATCC CRL 1658) cell line (derived from mice) as a fibroblast cell, which was purchased, was inoculated into a DMEM medium including 4.5 g/L of glucose, 10% serum, and 1% antibiotics, and was subcultured in 75[…] T-flask at 37° C. The subcultured cell line was cultured under 5% CO2 for 24 hours, and then it was treated with 0.05% Trypsin containing 0.02% EDTA. Then, cells were separated, were inoculated into 96-well-flask (1×10^4 cells/well) and stabilized through culture for 6 hours. To the cells, each of arctiin, arctigenin, a 1:3 mixture of arctiin and arctigenin, and a 3:1 mixture of arctiin and arctigenin was added as noted in Table 5, and culture was further carried out for 12 hours. After the culture, 10[…] of MTT (3-(4,5-dimethylthiazol-2-yl) 2,5-diphenyl tetrazolin bromide) solution (5[…]/□) was added in each well, and culture was carried out for 4 hours. Then, 100[…] of DMSO (Dimethyl sulfoxide) solution was added, and absorbance was measured at O.D. 570 nm to calculate the cell viability. […] Herein, the cell viability of 100% was based on the absorbance in the case of no additional substance."}, "[6]": {"conditions": "α-MSH-stimulated B-16 melanoma, 5 days, medium absorbance at 475 nm"}},
  "note": "Read-outs that look alike come from different tables or passages of the source.",
  "data": [
    {"molecule": "C[C@@H]1O[C@@H](OC[C@H]2O[C@@H](Oc3c(-c4ccc(O)c(O)c4)oc4cc(O)cc(O)c4c3=O)[C@H](O)[C@@H](O)[C@@H]2O)[C@H](O)[C@H](O)[C@H]1O", "note": "[Rutin]", "values": [
      {"measurement": "IC50", "setting": "[1]", "result": "< 500", "unit": "mg/L"},
      {"measurement": "Intensity of tyrosinase band", "setting": "[2]", "result": 150}
    ]},
    {"molecule": "COc1cc(C[C@H]2COC(=O)[C@@H]2Cc2ccc(O)c(OC)c2)ccc1O", "note": "[Matairesinol]", "values": [
      {"measurement": "IC50", "setting": "[1]; [6]", "result": "< 200", "unit": "mg/L"},
      {"measurement": "Intensity of tyrosinase band", "setting": "[2]", "result": 180}
    ]},
    {"molecule": "COc1ccc(CC2COC(=O)C2Cc2ccc(O[C@@H]3O[C@H](CO)[C@@H](O)[C@H](O)[C@H]3O)c(OC)c2)cc1OC", "note": "(stereo partly shown) [Arctiin, 4-[(3,4-Dimethoxyphenyl)methyl]dihydro-3-[(4-Glucose-3-metoxyphenyl)methyl]-2(3H)-furanone]", "values": [
      {"measurement": "Melanin synthesis inhibition (in words)", "setting": "[1]", "result": "most effective"},
      {"measurement": "Melanin synthesis inhibition (%)", "setting": "[3]; final concentration 60 □/□", "result": 67.3, "unit": "%"},
      {"measurement": "Melanin synthesis inhibition (%)", "setting": "[3]; final concentration 100 □/□", "result": 78.5, "unit": "%"},
      {"measurement": "Melanin synthesis inhibition (%)", "setting": "[3]; final concentration 140 □/□", "result": 80.3, "unit": "%"},
      {"measurement": "Melanin synthesis inhibition (%)", "setting": "[3]; final concentration 180 □/□", "result": 84.2, "unit": "%"},
      {"measurement": "Intensity of tyrosinase band", "setting": "[2]", "result": 155},
      {"measurement": "Inhibiting effect on biosynthesis of tyrosinase (in words)", "setting": "[2]", "result": "significantly high inhibiting effects"},
      {"measurement": "Strength of tyrosinase band", "setting": "[4]", "result": 155},
      {"measurement": "Cell viabilities (range over tested concentrations)", "setting": "[5]", "result": "94-100%"},
      {"measurement": "Toxicity determination on cells", "setting": "[5]", "result": "non-toxic"}
    ]},
    {"molecule": "C[C@H]1[C@H](C)CC[C@]2(C(=O)O)CC[C@]3(C)C(=CC[C@@H]4[C@@]5(C)CC[C@H](O)C(C)(C)[C@@H]5CC[C@]43C)[C@H]12", "note": "[Ursolic acid]", "values": [
      {"measurement": "IC50", "setting": "[1]; [6]", "result": "< 500", "unit": "mg/L"},
      {"measurement": "Intensity of tyrosinase band", "setting": "[2]", "result": 180}
    ]},
    {"molecule": "CC1(C)CC[C@]2(C(=O)O)CC[C@]3(C)C(=CC[C@@H]4[C@@]5(C)CC[C@H](O)C(C)(C)[C@@H]5CC[C@]43C)[C@@H]2C1", "note": "[Oleanolic acid]", "values": [
      {"measurement": "IC50", "setting": "[1]; [6]", "result": "< 1000", "unit": "mg/L"},
      {"measurement": "Intensity of tyrosinase band", "setting": "[2]", "result": 200}
    ]},
    {"molecule": "C=C(C)[C@@H]1CC[C@]2(C(=O)O)CC[C@]3(C)[C@H](CC[C@@H]4[C@@]5(C)CC[C@H](O)C(C)(C)[C@@H]5CC[C@]43C)[C@@H]12", "note": "[Betulinic acid]", "values": [
      {"measurement": "IC50", "setting": "[1]; [6]", "result": "< 500", "unit": "mg/L"},
      {"measurement": "Intensity of tyrosinase band", "setting": "[2]", "result": 170}
    ]},
    {"molecule": "COc1cc(CC2C(=O)OCC2Cc2ccc(OC)c(OC)c2)ccc1O", "note": "(stereo not shown) [Arctigenin, 4-[(3,4-Dimethoxyphenyl)methyl]dihydro-3-[(4-hydroxy-3-metoxyphenyl)methyl]-2(3H)-furanone]", "values": [
      {"measurement": "Melanin synthesis inhibition (in words)", "setting": "[1]", "result": "most effective"},
      {"measurement": "Melanin synthesis inhibition (%)", "setting": "[3]; final concentration 60 □/□", "result": 66.8, "unit": "%"},
      {"measurement": "Melanin synthesis inhibition (%)", "setting": "[3]; final concentration 100 □/□", "result": 79.6, "unit": "%"},
      {"measurement": "Melanin synthesis inhibition (%)", "setting": "[3]; final concentration 140 □/□", "result": 81.3, "unit": "%"},
      {"measurement": "Melanin synthesis inhibition (%)", "setting": "[3]; final concentration 180 □/□", "result": 84.3, "unit": "%"},
      {"measurement": "Intensity of tyrosinase band", "setting": "[2]", "result": 135},
      {"measurement": "Inhibiting effect on biosynthesis of tyrosinase (in words)", "setting": "[2]", "result": "significantly high inhibiting effects"},
      {"measurement": "Strength of tyrosinase band", "setting": "[4]", "result": 135},
      {"measurement": "Toxicity determination on cells", "setting": "[5]; criteria of Table 6", "result": "non-toxic"},
      {"measurement": "Cell viability (%)", "setting": "[5]; final concentration 20 □/□", "result": 101.2, "unit": "%"},
      {"measurement": "Cell viability (%)", "setting": "[5]; final concentration 60 □/□", "result": 101.0, "unit": "%"},
      {"measurement": "Cell viability (%)", "setting": "[5]; final concentration 100 □/□", "result": 99.8, "unit": "%"},
      {"measurement": "Cell viability (%)", "setting": "[5]; final concentration 140 □/□", "result": 99.6, "unit": "%"},
      {"measurement": "Cell viability (%)", "setting": "[5]; final concentration 180 □/□", "result": 99.7, "unit": "%"}
    ]}
  ]
}
